Here are results for 13 molecules from PubChem BioAssay (NCI).

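Following 48 hours of exposure in 96-well plates, responses at five concentrations were used to interpolate endpoints linearly. GI50 = concentration required for 50% inhibition of growth. Definition used: TGI = concentration required for complete inhibition of growth.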

Assay in all cases: NCI anticancer screen, dose series, 48 h
For assay [1], the system named is UACC-62 melanoma.
Assay [2] relates to MALME-3M melanoma.
For assay [3], the system named is PC-3 prostate.
Assay [4] has as its system HS 578T breast.
Assay [5] concerns KM12 colon.
The subject of assay [6] is UO-31 renal.
Assay [7] relates to T-47D breast.
The test system of assay [8] is SF-539 CNS.
In assay [9] the test system is U251 CNS.
The test system of assay [10] is SK-MEL-2 melanoma.

In the case of `COC(=O)C1Cc2ccc(O)c(O)c2CN1` (stereo not drawn), the TGI is 39 µM in assay [1]; 98.7 µM in assay [2]; 84.3 µM in [3]; 56 µM in assay [4]; over 100 µM in assay [5]; 51.8 µM in assay [6]. Also, the TGI in [7] was over 100 µM; in [8] it was 32.5 µM; in [9], 31.2 µM; in [10], 31.2 µM.
For the molecule `COC1CCON1C(=O)c1ccccc1` (stereo not drawn), the TGI in assay [2], in assay [3], in assay [4], in assay [6], in assay [7] and in assay [8] was over 10 µM throughout. This molecule also came in with a TGI in [10] of over 10 µM.
Regarding `CC1(C)[C@@H]2CC[C@]1(C)[C@H](OC(=O)/C=C/c1ccccc1)C2`, the TGI in [1] amounted to 57.5 µM; in assay [2], 38.5 µM; in assay [3], 56.4 µM; in assay [4], 41.7 µM; in [5], 42.6 µM; in assay [6], 34 µM. The TGI in assay [7] worked out at 34.2 µM; in assay [8], 35.9 µM; in [9], 32.4 µM; in [10] it was 35 µM.
For the molecule `Oc1ccc([C@H]2c3c(O)cc(O)cc3C3c4c(cc(O)cc4[C@@H]2[C@H]2c4cc(O)cc5c4C(c4cc(O)cc(O)c4[C@@H]2c2ccc(O)cc2)[C@@H](c2ccc(O)cc2)O5)O[C@@H]3c2ccc(O)cc2)cc1` (stereo partly drawn), the TGI in assay [1], in assay [2], in assay [3], in assay [4], in assay [5] and in assay [7] was over 100 µM in each case. The TGI in assay [8] was 5.33 µM; in assay [9], over 100 µM; in [10], over 100 µM.
As to `COC(=O)c1c(C(=O)OC)c2ccccn2c1-c1cc(OC)c(Br)c(=O)o1`, the TGI in assay [1], in assay [2], in assay [3], in [4], in assay [5] and in assay [6] was over 100 µM in each case. Besides, the TGI in [7], in assay [8] and in [10] was over 100 µM throughout.
On to `S=C(N/N=C(\c1ccccc1)c1ccccn1)NC1CCCCC1`, for which the TGI in [1], in assay [2], in [3], in assay [4], in assay [5] and in [6] was over 100 µM each time. Also, the TGI in assay [7], in [8], in [9] and in assay [10] was over 100 µM throughout.
As to `COc1cc(-c2nc3ccc(N4CCN(C)CC4)cc3[nH]2)c(OC)c2[nH]c(COC(C)=O)nc12`, the TGI was over 100 µM in assay [1]; 63.8 µM in assay [2]; over 100 µM in [3]; over 100 µM in assay [4]; over 100 µM in [5]; over 100 µM in assay [6]. Moreover, the TGI in assay [7], in assay [8], in assay [9] and in assay [10] was over 100 µM each time.
Consider `COc1cc(CSc2ccc(O)cc2)cc(OC)c1OC`, for which the TGI was over 100 µM in [1]; over 100 µM in assay [2]; over 100 µM in assay [3]; over 100 µM in assay [4]; over 100 µM in assay [5]; 52 µM in assay [6]. Further, the TGI in assay [7] is 55.5 µM; in [8] it was over 100 µM; in assay [9] it was over 100 µM; in assay [10] it was 67 µM.
As for `Cc1cccc(Br)[n+]1[O-]`, the TGI in assay [1], in assay [2], in assay [3], in assay [4], in assay [5] and in [6] was over 100 µM throughout. The TGI in assay [7], in assay [8], in assay [9] and in assay [10] was over 100 µM throughout.
With `COc1ccc2c3c(Nc4cccc(/C(C)=N\O)c4)[nH]c4ccccc4c-3c(N=O)c2c1`, the GI50 in assay [1] was 43.9 µM; in assay [2], 34.7 µM; in assay [3], 20.5 µM; in assay [4], 94.8 µM; in assay [5], 28.1 µM; in assay [6] it was 52.9 µM. Also, the GI50 is 16.9 µM in [7], over 100 µM in assay [8], 33.3 µM in assay [9] and 19.7 µM in assay [10]. Also, the TGI was over 100 µM in assay [1]; 95.5 µM in assay [2]; 65.4 µM in [3]; over 100 µM in assay [4]; over 100 µM in assay [5]; over 100 µM in assay [6]. Also, the TGI in assay [7] is over 100 µM; in assay [8], over 100 µM; in assay [9], over 100 µM; in assay [10] it was 67.7 µM.
As to `Cc1ccc(C(=O)Nc2ccc(CP(=O)(O)O)cc2)cc1NC(=O)c1cccc(N)c1`, the TGI in [1], in assay [2], in assay [3], in assay [4], in assay [5] and in assay [6] was over 100 µM each time. Also, the TGI in [7], in assay [8], in assay [9] and in assay [10] was over 100 µM each time.
In the case of `CSC1(C)C(=O)Nc2c(OCc3ccccc3)cc([N+](=O)[O-])cc21` (stereo not drawn), the TGI is over 100 µM in [1]; over 100 µM in assay [2]; over 100 µM in assay [3]; 32.6 µM in assay [4]; over 100 µM in assay [5]; over 100 µM in assay [7]. Moreover, the TGI in assay [8] is over 100 µM; in assay [9], 37.3 µM; in assay [10], over 100 µM.
In the case of `CCOC(=O)NN(C(=O)OCC)C(C(=O)C1=CCCCC1)N(NC(=O)OCC)C(=O)OCC`, the TGI in assay [2], in [3], in [4], in assay [5], in assay [6] and in assay [7] was over 100 µM each time. Also, the TGI in assay [8], in assay [9] and in [10] was over 100 µM each time.
